Data published in PubChem BioAssay AID743395 (Broad Institute, 2014).

Tested on: HepG2 viability, CellTiter-Glo ATP luminescence, 72 h
Assay: HepG2 cell cytotoxicity, dose response, cytotoxicity control, CellTiter-Glo luminescence, cherry-pick, set 2 (AID 743395)

Point of comparison: `COc1ccccc1Nc1c2c(nc3ccccc13)CCC2`, AC35 7.12 µM. Against it:
- CCOc1ccc(NC(=O)c2cc(OC)nc3ccccc23)cc1 — 2-fold higher, 14.3 µM
- O=C1/C(=C\c2cc(Cl)c(O)c(Cl)c2)SC(=S)N1Cc1ccccc1 — 2.2-fold higher, 15.4 µM
- O=C(Nc1cccc(C2=NCCN2)c1)Nc1cccc(C2=NCCN2)c1 — within 1.5-fold, 5.69 µM
- COc1ccc(C2=Nn3c(nnc3-c3ccccc3F)SC2)cc1OC1CCOC1 (stereo unspecified) — 1.9-fold higher, 13.2 µM
- CN(C)CCn1c2ccccc2c2nc3ccc([N+](=O)[O-])cc3cc21 — 2.9-fold higher, 20.8 µM
- CCSC(=O)N1c2ccc(OC)cc2C=CC1C#N (stereo unspecified) — within 1.5-fold, 7.54 µM
- COc1ccc(OC)c(/C(C)=N\NC(=O)c2cc3cc(Cl)ccc3n2C)c1 — 2-fold higher, 14 µM
- CN1c2ccc(-c3ccc(F)cc3)cc2[C@H]2[C@H](CCN2S(=O)(=O)c2cccc(F)c2)[C@H]1CO — 2.4-fold higher, 17.2 µM
- Cc1ccc(-c2ccc3c(c2)O[C@H](CN(C)Cc2ccccn2)[C@@H](C)CN([C@@H](C)CO)S3(=O)=O)cc1 — 2.4-fold higher, 16.8 µM
- CCCCn1c(CN2CCN(c3cccc(Cl)c3)CC2)nc2c1c(=O)[nH]c(=O)n2C — 1.7-fold higher, 12.3 µM
- COc1c(O)cc2c(c1OC)-c1ccc(OC)c(=O)cc1C(NC(C)=O)CC2 (stereo unspecified) — 16-fold lower, 0.453 µM
- C[C@@H]1CN([C@@H](C)CO)C(=O)c2cc(NS(=O)(=O)c3ccc(Cl)cc3)ccc2O[C@@H]1CN(C)Cc1ccc(C(F)(F)F)cc1 — 2.3-fold higher, 16.4 µM
- COc1ccc([C@H]2CC(=O)C=C(c3ccc(OC)cc3OC)C2)cc1 — within 1.5-fold, 7.54 µM
- N#C[C@H]1[C@H](c2ccc(C3=CCCCC3)cc2)[C@@H](CO)N1C(=O)NC1CCCCC1 — within 1.5-fold, 10.3 µM
- C/C(=N\NC(=O)c1c(Cl)c(C)nn1C)c1ccc(NC(=O)C2CCC2)cc1 — 1.6-fold lower, 4.43 µM
- CC(=O)c1ccc(Nc2cc(C)nc3c(C)cc(C)cc23)cc1 — within 1.5-fold, 7.71 µM
- O=C1CN(S(=O)(=O)Cc2ccccc2)C[C@@H]2[C@@H](c3ccc(C#Cc4cccc(F)c4)cc3)[C@@H](CO)N12 — within 1.5-fold, 7.38 µM
- O=C(N/N=C\c1c(O)ccc2ccccc12)c1cncc(Br)c1 — 6-fold lower, 1.18 µM
- c1coc(-c2nc3ccccc3s2)c1 — within 1.5-fold, 7.04 µM
- Nc1ccc2c3c(cccc13)C(=O)N(c1ccccc1)C2=O — 1.5-fold higher, 10.7 µM
- Cc1cc(NCc2ccccn2)n2ncc(-c3ccccc3)c2n1 — within 1.5-fold, 7.75 µM
- CCC(=O)N1CC2(CCN(Cc3ccc(Cl)cc3)CC2)c2c(n(C)c3cc(OC)ccc23)[C@H]1CO — within 1.5-fold, 9.27 µM
- CCN1/C(=C/c2ccc3cc(C)cc(C)c3[n+]2CC)Sc2cc(C)ccc21 — 7.8-fold lower, 0.908 µM
- COc1ccc(CN(C)C[C@H]2OCCCC[C@H](C)Oc3ccc(NC(=O)Nc4ccc(C(F)(F)F)cc4)cc3C(=O)N([C@H](C)CO)C[C@H]2C)cc1 — within 1.5-fold, 10.1 µM
- COc1ccc(S(=O)(=O)Nc2cc3c(cc2C(C)=O)OCO3)cc1 — 1.8-fold higher, 12.9 µM
- O[Si](CCCN1CCCCC1)(c1ccc(F)cc1)C1CCCCC1 (stereo unspecified) — within 1.5-fold, 10.3 µM
- CC1=NN(c2ccccc2)C(=O)C1N=Nc1cccc(O)c1 (stereo unspecified) — 2.7-fold higher, 19 µM
- O=C(Nc1cccc(F)c1)N1CCCCN2[C@@H](CO)[C@H](c3ccc(C#CC4CC4)cc3)[C@@H]2C1 — within 1.5-fold, 10.1 µM
- CC(=O)Oc1ccc(N2C(=O)c3cccc4c([N+](=O)[O-])ccc(c34)C2=O)cc1 — 2.3-fold higher, 16.7 µM
- CCOC(=O)c1ccc(N2CCOCC2)c(NC(=O)c2c(-c3ccccc3)noc2C)c1 — 1.8-fold lower, 3.87 µM
- O=C(NCc1ccccc1)C1Cc2c(-c3ccc(Cl)cc3)ccnc2O1 (stereo unspecified) — within 1.5-fold, 9.8 µM
- CC1(C(=O)NCc2ccco2)Cc2c(-c3ccc4c(c3)OCO4)ccnc2O1 (stereo unspecified) — within 1.5-fold, 9.85 µM
- CN1C(=O)NC(=O)C2(CCCC2)C1=O — within 1.5-fold, 9.42 µM
- COCCCN=C1NN=C(c2cc(C)n(Cc3ccco3)c2C)CS1 — within 1.5-fold, 6.71 µM
- Cc1nn(S(=O)(=O)c2ccc(Cl)cc2)c(C)c1Sc1ccc([N+](=O)[O-])cc1 — 3.1-fold higher, 21.8 µM
- O=C(C[C@@H]1CC[C@H]2[C@@H](COC[C@H](O)CN2Cc2ccc3c(c2)OCO3)O1)Nc1ccc(-c2ccccc2)cc1 — 2.4-fold higher, 16.8 µM
- COc1ccccc1Nc1nc(-c2sc(NC(=O)C(C)(C)C)nc2C)cs1 — 2.2-fold higher, 15.7 µM
- C[C@H]1CN([C@@H](C)CO)S(=O)(=O)c2ccc(C#Cc3ccc(F)cc3)cc2O[C@H]1CN(C)C(=O)NC1CCCCC1 — 1.7-fold higher, 11.9 µM
- CO/N=C\CC(=O)Nc1ccc(Cl)cc1Cl — 2.3-fold higher, 16.1 µM
- C[C@H]1CN([C@@H](C)CO)C(=O)Cc2cc(NC(=O)Nc3ccc(C(F)(F)F)cc3)ccc2O[C@H]1CN(C)S(=O)(=O)c1ccccc1 — within 1.5-fold, 10.1 µM
- Cc1onc(-c2ccccc2Cl)c1C(=O)N1CCN(c2cccc(Cl)c2)CC1 — 1.9-fold higher, 13.5 µM
- CCc1cc(-c2nnn(CCC3COCCO3)c2CC)ccc1-c1cn(Cc2ccc3ccccc3c2)nn1 (stereo unspecified) — 2.2-fold higher, 15.8 µM
- COc1ccc2noc3c2c1C(=O)c1ccccc1-3 — 2.2-fold higher, 15.4 µM
- Cc1ccc2cc(CN(CC3CCCO3)C(=S)Nc3ccccc3)c(=O)[nH]c2c1C (stereo unspecified) — 2.1-fold higher, 14.7 µM
- O=C1c2cccc(NCCCNCCO)c2C(=O)c2cccc(NCCCNCCO)c21 — 2-fold lower, 3.61 µM
- COc1cc2c(C#CCCO)c(-c3ccsc3)oc(=O)c2cc1OC — 2.9-fold higher, 21 µM
- C[C@@H]1CN([C@@H](C)CO)C(=O)c2cc(C#CCN(C)C)cnc2O[C@H]1CN(C)Cc1ccc(-c2ccccc2)cc1 — 1.6-fold higher, 11.5 µM
- C[C@H]1CN([C@@H](C)CO)C(=O)c2cccc(NC(=O)Nc3ccc(C(F)(F)F)cc3)c2O[C@H]1CN(C)C(=O)NC1CCCCC1 — 1.6-fold higher, 11.2 µM
- Clc1ccc2c(c1)-c1ccccc1C1=NCCN12 — 2.3-fold lower, 3.06 µM
- CC(=O)Nc1cccc(-c2ccnc3c2CC(C)(C(=O)NCc2cccs2)O3)c1 (stereo unspecified) — 2.9-fold lower, 2.49 µM
